These results are taken from patent US20110224226A1, “COMPOSITIONS AND METHODS FOR INCREASING BLOOD PLATELET LEVELS IN HUMANS” (AKARX, Inc., priority 2006, published 2011).

In general, bioavailability refers to dose-corrected exposure relative to a reference, in per cent. For orientation: fraction unbound means free concentration divided by total concentration. Higher therefore signals weak binding.

Data set [1] deals with human c-Mpl-Ba/F3 cells. Nature of the data set: proliferation of cultured human c-Mpl-Ba/F3 cells. It counts as cell-based. The conditions noted are these: concentration-dependent; maximum effect similar to that of rhTPO.
Data set [2] addresses T1, human c-Mpl (Homo sapiens, UniProt P40238).
T1 construct: endogenous in cells; host or cells: human platelets
T1 sequence (P40238 26-635): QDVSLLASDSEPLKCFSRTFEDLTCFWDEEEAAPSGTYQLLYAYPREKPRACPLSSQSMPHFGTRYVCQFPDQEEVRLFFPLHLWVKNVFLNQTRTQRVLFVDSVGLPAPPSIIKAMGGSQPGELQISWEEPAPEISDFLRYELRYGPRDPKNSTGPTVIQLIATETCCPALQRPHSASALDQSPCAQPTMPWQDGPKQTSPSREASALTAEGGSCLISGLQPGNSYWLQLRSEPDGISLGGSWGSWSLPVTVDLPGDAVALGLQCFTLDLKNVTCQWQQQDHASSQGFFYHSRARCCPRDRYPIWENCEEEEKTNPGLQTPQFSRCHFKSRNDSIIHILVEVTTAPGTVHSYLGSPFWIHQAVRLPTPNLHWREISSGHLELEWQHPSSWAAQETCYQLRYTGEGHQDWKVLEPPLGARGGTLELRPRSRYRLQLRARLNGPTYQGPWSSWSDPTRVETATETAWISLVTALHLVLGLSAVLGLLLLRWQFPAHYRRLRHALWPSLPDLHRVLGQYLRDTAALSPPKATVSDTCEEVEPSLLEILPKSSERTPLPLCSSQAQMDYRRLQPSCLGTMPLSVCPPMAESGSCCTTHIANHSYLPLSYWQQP
Nature of the data set: interference with rhTPO binding to human platelets. The conditions noted are these: concentrations up to 100 μM.

The test system of data set [3] is platelet function. Nature of the data set: platelet function (platelet aggregation and activation). It counts as cell-based, human.
Data set [4] in a line: pharmacokinetics after intravenous and oral administration in dogs. The data set is classed as in vivo. The conditions noted are these: dog, plasma. The text has this:
After a single intravenous administration of the drug of Formula I as the monomaleate salt to mice and dogs, plasma concentrations of Formula I decreased in a biphasic manner.

Data set [5] can be described thus: in-vitro plasma protein binding, mice. The note with it: mouse, 0.05 to 50 μg/mL. The data set is classed as in vitro ADME. As for the experimental part: (§1) The in-vitro plasma protein binding of the drug of Formula I was independent of concentration over the concentration range of 0.05 to 50 μg/mL and was 87.2-89.1% in mice; 87.6-89.2% in rats; 88.3-92.0% in rabbits; […] in dogs; 97.0-97.6% in monkeys; and 96.3-96.6% in humans.

Data set [6] is described as follows: in-vitro plasma protein binding, rats. The data set is classed as in vitro ADME. The conditions noted are these: rat, 0.05 to 50 μg/mL. As for the experimental part:
as §1

The nature of data set [7]: in-vitro plasma protein binding, rabbits. It counts as in vitro ADME. The note with it: rabbit, 0.05 to 50 μg/mL. How it is done: as §1
The test system of data set [8] is platelet count. Description: Example 1 single dose study: pharmacodynamics (platelet count). The data set is classed as in vivo, human. As for the experimental part:
A single-center, randomized, double-blind, dose-rising study to determine the safety, pharmacokinetics, and pharmacodynamics of single doses of 1-(3-chloro-5-{[4-(4-chlorothiophen-2-yl)-5-(4-cyclohexylpiperazin-1-yl)thiazol-2-yl]carbamoyl} pyridin-2-yl)piperadine-4-carboxylic acid (Formula I) in normal healthy volunteers was performed. The starting dose of the drug of Formula I was 1 mg (expressed as free base). Successive dose cohorts received 3, 10, 20, 50, 75 and 100 mg. The drug substance in the form of the monomaleate salt was suspended in Ora-Plus® (purified water, microcrystalline cellulose, sodium carboxymethylcellulose, xanthan gum, citric acid, sodium phosphate, simethicone, potassium sorbate and methylparaben), a commercially available oral suspending vehicle manufactured by Paddock Laboratories, Inc. Minneapolis, Minn. The Ora-Plus® was diluted with purified water, USP in a 1:1 suspension before being used to suspend the drug substance powder in preparation for oral administration. Prior to administration, 30 mL of the Ora-Plus®/water vehicle was added to each bottle, shaken and then consumed by the subject for each of the 3, 10, 50 and 75 mg dose cohorts. This was followed by an additional 30 mL of vehicle that was added to the bottle as a wash solution, shaken and then consumed by the subject. For the 20 mg and 100 mg dose cohorts, 60 mL of the Ora-Plus®/water vehicle was added to two (2) separate bottles containing the appropriate dose of drug (30 mL each bottle), shaken then consumed by the subjects. This was followed by an additional 60 mL of vehicle that was added as 30 ml to each bottle as a wash solution, shaken and then consumed by the subject.
A minimum of 9 subjects (male and female healthy volunteers) were enrolled in each cohort. The active group within each cohort included male and female volunteers. Three subjects per cohort received placebo. Each successive dose cohort was treated no sooner than 10 days after the previous group had received the study drug. […]

Data set [9] is described as follows: Example 2 multi-dose study: safety. It counts as in vivo, human. The note with it: up to 20 mg daily for ten (10) to fourteen (14) days, healthy volunteers. How it is done:
A double-blind, placebo-controlled, dose rising study was performed in healthy male and female volunteers. Each dose cohort received either placebo or active treatment as an oral suspension once daily for fourteen (14) consecutive days. The dose of study drug was prepared and administered as described in Example 1 above. The doses administered in this multiple dose study were based on the safety and tolerability assessment of the doses administered in Example 1.
Based on the results of Example 1, the starting dose was 3 mg. Based on the safety and tolerability results from Example 1, the dose was scheduled to be escalated to 10, 20, 50 and 100 mg per day for 14 consecutive days. Successive dose cohorts were not treated until the previous cohort completed 14 days of treatment and the safety follow-up visit on Day 21.

Regarding `O=C(Nc1nc(-c2cc(Cl)cs2)c(N2CCN(C3CCCCC3)CC2)s1)c1cnc(N2CCC(C(=O)O)CC2)c(Cl)c1` [Formula I, 1-(3-chloro-5-{[4-(4-chlorothiophen-2-yl)-5-(4-cyclohexylpiperazin-1-yl)thiazol-2-yl]carbamoyl}pyridin-2-yl)piperadine-4-carboxylic acid], in data set [1], the “proliferation of cultured human c-Mpl-Ba/F3 cells” value is reported as “stimulates the proliferation”. Besides, the “interference with rhTPO binding to human platelets” value in data set [2] is recorded as “does not interfere”. Further, in [3], the “platelet function as measured by platelet aggregation and activation” value is listed as “does not appear to effect platelet function”. The half-life in data set [4] (dogs, single intravenous administration as the monomaleate salt, read-out: terminal elimination half-life (t1/2) (converted)) is 2.7 h. The bioavailability in data set [4] (oral administration, read-out: absolute bioavailability) was found to be 52%. Further, the unbound share (fraction unbound) fell in the range of 0.109 to 0.128 in data set [5], 0.108 to 0.124 in data set [6] and 0.08 to 0.117 in [7]. Also, the “dose at which the PD limit (5 subjects with >50% increase in platelet count) was reached” value in data set [8] (single dose) is on record as 100 mg. In [8] (single dose, increasing drug concentrations and exposure), the “dose-concentration-response relationship for changes in platelet count” value is recorded as “linear increases in platelet counts over baseline”. In data set [8] (single oral dose, healthy volunteers), the “single dose after which statistically significant increases in platelet counts were evident” value was no less than 10 mg. In data set [9], the “tolerability (drug-related clinical or laboratory adverse experiences)” value is reported as “well tolerated”.
